How the values were obtained:
[1] = test system: Human lung fibroblast cells; assay: RT-PCR gene expression in TGFβ fibrosis model of human lung fibroblast cells; assay type: cell-based; settings: 10 mM for 1 hour, then 2 ng/mL TGFβ 24 hours, relative to untreated cells; for gene expression of Col1α1: FIG. 2A; for gene expression of FN1: FIG. 2B; for gene expression of CTGF: FIG. 2C
Description: Primary human lung fibroblasts were isolated from lung resections of patients undergoing lung cancer surgery or lung transplantation performed after informed consent as approved by an external Research Ethics Committee (REC 15/SC0101) according to Royal Brompton Hospital protocol (Royal Brompton & Harefield NHS Foundation Trust, 2016). Fibroblasts from healthy individuals were also purchased from Lonza (Lonza, Basel, Switzerland).
Real Time PCR After treatment, the supernatant liquid was removed from cell cultures and RLT buffer containing 1% beta-mercaptoethanol was added to each well and then was frozen for later analysis. RNA extraction of cells was performed using the RNeasy Plus Mini Kit (QIAGEN), according to the manufacturer's protocol. Samples were defrosted at room temperature and centrifuged. The homogenate was transferred onto RNeasy MinElute spin columns and purified. RNA was reverse-transcribed into cDNA using the High-Capacity cDNA Reverse Transcription Kit (ThermoFisher) according to the manufacturer's instructions. Real-time PCR was performed using fast-qPCR mastermix (QIAGEN) on a Viia-7 instrument (Applied Biosciences) with Taqman primers for human genes, namely acod1, cd163, fn1, IL-1β, mmp1, mmp9 using actb (Life Technologies) as housekeeping gene.
Fibroblasts are the principal effector cell during lung fibrosis and the main source of the excessive extracellular matrix deposition seen during the disease. To explore the anti-fibrotic properties of itaconate analogues in human fibroblast cells, qPCR experiments were undertaken. Human lung fibroblast cells were seeded (10,000 cells/well) in a 48-well plate and were incubated with ICL-PO, ICL-2, ICL-3, ICL-4, ICL-6, itaconate, dimethyl itaconate, sodium itaconate and dimethyl malonate for 1 hour, after which the supernatant liquid was removed. The healthy fibroblasts were then incubated with 2 ng/mL transforming growth factor beta (TGFβ) for 24 hours in order to mimic pulmonary fibrosis. TGFβ is activated in fibrotic diseases and plays a key role in mediating fibrotic tissue. After treatment, RNA extraction of the cells was performed and 10 μg RNA per sample was reverse transcribed into cDNA. RT-PCR was performed with TaqMan primers for Col1α1, connective tissue growth factor (CTGF) and fibronectin (FN1) human genes. The results are shown in FIG. 2—(A) Gene expression of COL1A1 relative to two housekeeping genes (bactin and Beta-2-Microglobulin-averaged to make a ‘pooled’ control); (B) Gene expression of FN1 relative to housekeeping gene; and (C) Gene expression of CTGF relative to housekeeping gene.

[2] = test system: human lung fibroblasts; settings: exogenous itaconate added to cultures; cited from earlier work
[3] = test system: lung fibrosis in mice; settings: inhaled (particularly oropharyngeal inhalation); cited from earlier work
[4] = test system: Healthy primary human lung fibroblasts; assay: Seahorse glycolytic stress test (ECAR); assay type: cell-based; settings: 0.1 mM, 1 mM and 10 mM for 1 hour, then with or without 2 ng/ml TGF-β1 24 hours; FIGS. 4 and 5
Protocol: Healthy primary human lung fibroblasts (10,000 per well) were seeded in a seahorse plate pre-coated with Cell Tak (BD Biosciences, Oxford, UK). After an overnight incubation, fibroblasts were treated with different itaconate analogues for 1 hour and they were subsequently incubated with or without 2 ng/ml TGF-β1 for 24 hours. XF medium (nonbuffered RPMI containing 2 mM glutamine, 1 mM pyruvate and 10 mM glucose, pH 7.4, Agilent, Santa Clara, USA) was used to measure Oxygen Consumption Rate (OCR) and Extracellular Acidification Rate (ECAR) with the XFp extracellular flux analyser. The Seahorse glycolytic Stress Test (Agilent, Santa Clara, USA) was utilized to measure OCR and ECAR at baseline. Healthy primary human lung fibroblasts (10,000 per well) were seeded in a seahorse plate pre-coated with Cell Tak (BD Biosciences, Oxford, UK). After an overnight incubation, fibroblasts were treated with different concentrations (0.1 mM, 1 mM and 10 mM) of the itaconate analogues, citraconate or mesaconate, for 1 hour and they were subsequently incubated with or without 2 ng/ml TGF-β1 for 24 hours. XF medium (nonbuffered RPMI containing 2 mM glutamine, 1 mM pyruvate and 10 mM glucose, pH 7.4, Agilent, Santa Clara, USA) was used to measure an Extracellular Acidification Rate (ECAR) with the XFp extracellular flux analyser for the citraconate assay (FIG. 4) or mesaconate assay (FIG. 5). […]

In the case of `C/C=C(\CC(=O)O)C(=O)O` [ICL-3, (2E)-2-ethylidenebutanedioic acid], the “gene expression of Col1α1” value [1] is reported as “decreased gene expression”, the “gene expression of FN1” value [1] is reported as “decreased gene expression” and the “gene expression of CTGF” value [1] is reported as “decreased gene expression”.

With `C=C(CC(=O)[O-])C(=O)[O-].[Na+].[Na+]` [sodium itaconate, reference compound] the “gene expression of Col1α1” value [1] was “decreased gene expression”, the “gene expression of FN1” value [1] was “decreased gene expression” and the “gene expression of CTGF” value [1] was “decreased gene expression”.

In the case of `C=C(CC(=O)O)C(=O)N(C)C` [ICL-2, Sodium 3-(dimethylcarbamovl)-3-methvlidenepropanoate], the “gene expression of Col1α1” value [1] is reported as “decreased gene expression”, the “gene expression of FN1” value [1] is reported as “decreased gene expression” and the “gene expression of CTGF” value [1] is reported as “decreased gene expression”.

In the case of `COC(=O)CC(=O)OC` [dimethyl malonate, reference compound], the “gene expression of Col1α1” value [1] is reported as “decreased gene expression”, the “gene expression of FN1” value [1] is reported as “decreased gene expression” and the “gene expression of CTGF” value [1] is reported as “decreased gene expression”.

With `C=C(CC(=O)O)C(=O)O` [itaconate, 2-methylidenebutanedioic acid, reference compound] the “gene expression of Col1α1” value [1] was “decreased gene expression”, the “gene expression of FN1” value [1] was “decreased gene expression” and the “gene expression of CTGF” value [1] was “decreased gene expression”. The “proliferation of human lung fibroblasts” value [2] was “limits”, the “wound healing of human lung fibroblasts” value [2] was “limits” and the lung fibrosis [3] was “ameliorates lung fibrosis”.

With `C=C(CC(=O)OC)C(=O)OC` [dimethyl itaconate] the “gene expression of Col1α1” value [1] was “decreased gene expression”, the “gene expression of FN1” value [1] was “decreased gene expression” and the “gene expression of CTGF” value [1] was “decreased gene expression”.

With `C=C(CC(=O)N(C)C)C(=O)O` [ICL-PO, 3-(dimethylcarbamoyl)-2-methvlidenepropanoic acid] the “gene expression of Col1α1” value [1] was “decreased gene expression”, the “gene expression of FN1” value [1] was “decreased gene expression” and the “gene expression of CTGF” value [1] was “decreased gene expression”.

For `C/C(=C/C(=O)O)C(=O)O` [citraconate], the “Extracellular Acidification Rate (ECAR)” value [4] was “concentration dependent reduction in ECAR”.

In the case of `C=C(CC(=O)O)C(=O)OC` [ICL-6, 3-(methoxycarbonyl)but-3-enoic acid], the “gene expression of Col1α1” value [1] is reported as “decreased gene expression”, the “gene expression of FN1” value [1] is reported as “decreased gene expression” and the “gene expression of CTGF” value [1] is reported as “decreased gene expression”.

For `C=C(CC(=O)OC(C)(C)C)C(=O)OC(C)(C)C` [ICL-4, Bis(2-methyl-2-propanyl)-2-methylenesuccinate], the “gene expression of Col1α1” value [1] was “decreased gene expression”, the “gene expression of FN1” value [1] was “decreased gene expression” and the “gene expression of CTGF” value [1] was “decreased gene expression”.

In the case of `C/C(=C\C(=O)O)C(=O)O` [mesaconate], the “Extracellular Acidification Rate (ECAR)” value [4] is reported as “concentration dependent reduction in ECAR”.

Source: patent US20250205188A1, “TREATMENT OR PREVENTION OF RESPIRATORY DISEASES CHARACTERISED BY, OR INVOLVING, LUNG FIBROSIS” (IMPERIAL COLLEGE INNOVATIONS LIMITED, priority 2022, published 2025)
